Our source for the GI50 and TGI values is PubChem BioAssay (NCI).

Holding throughout (assay): NCI anticancer screen, dose series, 48 h
Test [1] has as its system SF-539 CNS.
The test system of test [2] is HOP-62 NSCLC.
For test [3], the system named is HOP-92 NSCLC.
The subject of test [4] is MDA-MB-435.
The test system of test [5] is U251 CNS.
The subject of test [6] is SF-295 CNS.
Test [7] deals with HS 578T breast.
The test system of test [8] is SW-620 colon.
In test [9] the test system is HCT-116 colon.
The test system of test [10] is NCI-H226 lung.

Each structure is given as a SMILES string.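 How tested: cells in 96-well plates exposed to compound for 48 hours at five concentrations. Here, GI50 denotes the concentration required for 50% inhibition of growth. TGI: total growth inhibition.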

Take `Cn1c(-c2c(N)n(Nc3cccc(Cl)c3)c3nc(C#N)c(C#N)nc23)nc2ccccc21`: the GI50 in [1] was 1.38 µM; in test [2], 15.6 µM; in [3], 16.5 µM; in test [4], 3.28 µM; in [5], 7.92 µM; in [6], 11 µM. The GI50 in [7] is 7.26 µM; in test [8], 7.94 µM; in test [9], 8.54 µM. Moreover, the TGI in test [1] is 10.3 µM; in [2] it was 43.4 µM; in [3] it was over 50 µM; in [4] it was 14 µM; in test [5] it was 15.3 µM; in test [6], 27.8 µM. Besides, the values for the TGI in test [7], in test [8] and in [9] were 30.1 µM, over 50 µM and over 50 µM, respectively.

With `COc1cc2c(c(OC)c1OC)-c1ncc3c(OC)c(OC)c(OC)cc3c1C2`, the GI50 was 28.5 µM in test [2]; 52.1 µM in test [3]; 23 µM in [4]; 36.9 µM in test [5]; 22 µM in test [6]; 29.9 µM in test [7]. The GI50 in [8] was 37 µM; in [9] it was 27.8 µM. Moreover, the TGI in test [2] was 86 µM; in [3], over 100 µM; in [4] it was 73.5 µM; in test [5], over 100 µM; in test [6], 47.1 µM; in [7], 67.3 µM. The TGI in [8] and in test [9] was over 100 µM throughout.

Regarding `C=CCn1c(C)nc2ccc(Nc3nc(Nc4ccc(F)cc4)nc4ccccc34)cc21`, the GI50 in test [1] was 12.3 µM; in test [3] it was 0.585 µM; in [4], 4 µM; in test [5], 3.15 µM; in [6], 6.08 µM; in test [7], 9.83 µM. Moreover, the GI50 is 2.8 µM in test [8] and 2.41 µM in test [9]. The TGI in test [1] was 25.7 µM; in test [3], 6.97 µM; in test [4], 20.4 µM; in test [5] it was 14.9 µM; in test [6], 20.3 µM; in test [7], 56.7 µM. Moreover, the TGI in test [8] came out at 10.7 µM; in [9], 7.67 µM.

As to `O=S(=O)(NCCNc1nccc(-c2c(-c3ccc(F)c(O)c3)nc3sccn23)n1)c1ccc(F)cc1`, the GI50 in [1] is 4.54 µM; in [2], 5.09 µM; in test [3], 1.3 µM; in test [4], 0.824 µM; in test [5], 4.75 µM; in test [6], 3.41 µM. The GI50 is 4.01 µM in test [10], 2.94 µM in test [7] and 5.22 µM in [8]. Besides, the TGI in [1] was 25.3 µM; in test [2], 74.4 µM; in test [3], 6.86 µM; in test [4], 4.99 µM; in test [5], over 100 µM; in [6], 39.7 µM. In addition, the values for the TGI in [10], in test [7] and in test [8] were 20.4 µM, 8.81 µM and 30.4 µM, respectively.

As to `Cc1nc(N)nc2c1CCC(O)S2` (stereo unspecified), the GI50 in test [1] was 12.3 µM; in [2], 5.44 µM; in [3], 2.54 µM; in test [4] it was 4.51 µM; in [5] it was 3.3 µM; in [6], 14.8 µM. Moreover, the figures for the GI50 in test [7], in [8] and in test [9] were 10.7 µM, 3.64 µM and 2.39 µM, respectively. The TGI was determined as 27.9 µM in [1]; 18.5 µM in [2]; 12.3 µM in [3]; 18.7 µM in test [4]; 11.5 µM in [5]; 44.3 µM in [6]. The TGI is over 100 µM in test [7], 14.1 µM in [8] and 6.04 µM in [9].

Regarding `COc1ccc(/C=C/C(=O)/C=C/c2cc3ccccc3[nH]c2=O)cc1`, the GI50 in test [1] was 2.63 µM; in test [2], 4.67 µM; in test [4] it was 2.22 µM; in test [5], 1.81 µM; in [6] it was 2.65 µM; in [10] it was 4.42 µM. Further, the GI50 in test [7] is 3.14 µM; in test [8] it was 1.89 µM; in [9] it was 1.55 µM. Moreover, the TGI in [1] was determined as 7.13 µM; in test [2], 17.8 µM; in test [4], 5.07 µM; in test [5], 3.73 µM; in test [6], 8.02 µM; in test [10], 19.7 µM. The TGI worked out at 47 µM in test [7], 4.56 µM in [8] and 3.24 µM in test [9].

Take `O=C1c2ccccc2-[n+]2ccc3c([nH]c4ccccc43)c21`: the TGI in test [1] stood at 1.45 µM; in test [2], 2.56 µM; in test [4], 0.329 µM; in test [5] it was 1.47 µM; in test [6], 1.04 µM; in test [10] it was 3.08 µM. The TGI in test [7] is over 31.6 µM; in [8], 2.72 µM; in test [9] it was 0.51 µM.

For the compound `COc1ccc(-c2cs/c(=N\N=C\c3ccc(O)cc3O)n2/N=C/c2ccc(O)cc2O)cc1`, the GI50 in [1] was 1.9 µM; in [3], 2.38 µM; in test [4], 1.69 µM; in test [5], 1.86 µM; in test [6], 1.71 µM; in [10], 2.08 µM. Besides, the GI50 was 2.7 µM in test [7], 2.33 µM in [8] and 1.57 µM in test [9]. For the same compound, the TGI is 3.75 µM in [1]; 6.51 µM in [3]; 3.48 µM in test [4]; 3.91 µM in test [5]; 3.33 µM in test [6]; 4.78 µM in test [10]. Besides, the figures for the TGI in [7], in test [8] and in test [9] were 7.36 µM, 4.91 µM and 3.04 µM, respectively.
